Measurements taken from patent US20210292807A1, “METHOD FOR TESTING ANTIMICROBIAL SUSCEPTIBILITY” (priority 2017, published 2021).
≈ marks a conversion by molar mass, not a printed value.

Legend:
Klebsiella isolates [1] = experiment: Broth microdilution MIC (MICBMD) of Klebsiella isolates; assay type: cell-based, Klebsiella pneumoniae, Klebsiella oxytoca; details: limited clinical screen concentrations
Method: (§1) An aliquot of bacterial suspension was added to 50 mL centrifuge tubes (Corning, N.Y.) containing 9 mL of pre-warmed (37° C.) filtered MHB to produce a final density of 5×10^5-1×10^6 bacteria per mL. This suspension was incubated at 37° C. with shaking at 100 RPM for 30 minutes to obtain an actively dividing culture. An aliquot of antibiotic working solution from the previously described dilution series (appropriate to the concentration tested) was then added to each tube before a further 30-minute incubation with shaking, during which time a microbroth dilution (MBD) plate was prepared for overnight incubation at 37° C. as previously described in Clinical and Laboratory Standards Institute (2015) Performance Standards for Antimicrobial Susceptibility Testing: Informational Supplement. CLSI document M100-S25. Clinical and Laboratory Standards Institute, 950, West Valley Road, Suite 2500, Wayne, Pa., 19087, USA.
FIG. 2 outlines the work flow as exemplified herein. In brief, an isolate was retrieved from cryopreservation, plated onto blood agar to ensure purity, and inoculated into trypticase soy broth (TSB, described above) overnight to simulate biological fluids. A 1 mL aliquot of this overnight suspension was inoculated into Mueller-Hinton broth (MHB) [comprising about 300.0 g beef extract (dehydrated infusion from), about 17.5 g casein hydrolysate, about 1.5 g starch, reconstituted in about 1 L of water, pH 7.3±0.1 as measured and kept at 25° C.] and incubated at 37° C. to ensure bacteria were actively dividing. One aliquot was subjected to traditional microbroth dilution (MBD) susceptibility testing.

Klebsiella isolates [2] = experiment: Acoustic flow cytometry-assisted susceptibility test (FAST), MICFAST and S/NS, Klebsiella isolates; assay type: cell-based, Klebsiella pneumoniae, Klebsiella oxytoca; details: limited clinical screen concentrations
Method: A 1 mL aliquot of bacterial suspension was centrifuged, washed and resuspended in 1 mL filtered Hank's Buffered Salt Solution (HBSS; comprising about 0.137 M NaCl, about 5.4 mM KCl, about 0.25 mM Na2HPO4, about 0.1 g Glucose, about 0.44 mM KH2PO4, 1.3 mM CaCl2), 1.0 mM MgSO4, about 1.3 mM CaCl2), 1.0 mM MgSO4, and about 4.2 mM NaHCO3) and diluted in series (e.g., in a 1:10 serial dilution) to a final 1:1000 dilution.
One μL (microliter) of SYTO 9 stain (e.g., ThermoFisher Scientific) working stock solution was added to the final dilution at a final concentration of 5 μM and incubated for 5 minutes before counting bacterial events by acoustic flow cytometer (AFC) (Attune, ThermoFisher, Eugene, Oreg., USA), which was used to prepare a standardised inoculum density for susceptibility testing.
as §1
One millilitre of bacterial suspension from each antibiotic concentration was harvested by centrifugation at 7800×g for 5 minutes, washed and diluted 1:10 in filtered HBSS in a light-impermeable microcentrifuge tube, then stained with SYTO 9 stain at a final concentration of 5 μM, and incubated for 5 min before AFC sampling. Hoechst 33342 dye (NucBlue, Thermo Fisher Scientific, Eugene, Oreg., USA) and a SYTO 9/propidium iodide (PI) combination (Thermo Fisher Scientific) were used in a series of replicate experiments.
The acoustic flow cytometer employed was Attune acoustic flow cytometer (Thermo Fisher Scientific), having installed therein a 488 nm blue laser with a 530/30 nm filter on the photomultiplier tube for measuring fluorescence of cells assayed. Alternatively, the Attune NxT acoustic flow cytometer (Thermo Fisher Scientific) can be employed. AFC was calibrated at the beginning of each acquisition session using fluorescently labelled size calibration beads, in accordance with the manufacturer's instructions (ThermoFisher Scientific). The AFC settings were as follows: Forward Scatter (FSC) voltage 3100, FSC threshold 4×1000 AND, blue laser 1 (BL1—530/30 nm) voltage 1900, BL1 threshold 1×1000 AND, high sensitivity, flow rate 25 μL/minute, and an acquisition volume of 125 μL. Acquisition was halted after either collection of 20,000 events across all gates, or after 3 minutes, with each sample acquired in technical triplicate.
Collected data was exported in the FCS 3.0 file format and analysed in Flow v10.0 (FlowJo LLC, Ashland, Oreg., USA) by a single user, blinded to the MIC results by BMD (MICBMD).
Subsequent to quantitative MICFAST determination, the acoustic flow cytometer data were re-analysed in silico to produce a limited sub-set for qualitative susceptibility determination. The six antibiotic dilutions (0 mg/L, 0.25 mg/L, 1 mg/L, 2 mg/L, 4 mg/L and 16 mg/L) most relevant to qualitative susceptibility assessment were used. In silico analysis was restricted to the first technical triplicate of each recorded sample. Gating strategies remained consistent, with the addition of a gate restricting analysis to only those events recorded in the first 60 seconds of acquisition.

Staphylococcus aureus [3] = experiment: Broth microdilution (BMD) MIC of Staphylococcus aureus isolates; assay type: cell-based
Description: The acoustic flow cytometry assisted method of the present invention was employed essentially as described in the previous working examples to determine susceptibility of Staphylococcus aureus to both cefoxitin and oxacillin. Susceptibility classification into S/NS and quantitative MIC values obtained using the acoustic flow cytometry assisted method were compared to results obtained using the conventional broth microdilution (BMD) method. Results are shown in Table 4 (Panels A and B) below and in FIGS. 9-12.

Staphylococcus aureus [4] = experiment: Acoustic flow cytometry-assisted susceptibility test (FAST) of Staphylococcus aureus isolates; assay type: cell-based; design: MIC dilution at which susceptibility-associated signature is observed by AFC: unit not given beside the values
Method: The material and methods utilized are briefly outlined herein below. The method used was similar to that outlined in the earlier examples albeit adjusted to allow for 3 hour incubation of Staphylococcus aureus to account for longer doubling times of Staphylococcus aureus relative to K. pneumoniae used in the previous examples.
Events were acquired by forward scatter and BL1 (515 nm-545 nm) using the Attune with voltages and thresholding set as follows: Forward Scatter Voltage: 3050; Forward Scatter Threshold: 3×1000 AND; Side Scatter Voltage: 2950; Side Scatter Threshold: IGNORE; BL1 Voltage: 1500; BL1 Threshold: 1×1000 AND.
Nine mL of MHB was aliquoted into twelve, 50 mL Falcon tubes. Each tube was labelled with the required final test concentration of antibiotic. […] Tubes were transferred to a 35° C. incubator to pre-warm.
One 1 mL of the overnight bacterial suspension was transferred into a 1.5 mL microcentrifuge tube and centrifuge at 7,800×g for about 5 minutes. The supernatant was discarded, and the pellet re-suspended in 1 mL of 0.1 μm filtered HBSS. This step was optionally repeat.
About 900 μL of HBSS was dispended into three 1.5 mL tubes—two clear tubes and one amber tube. About 100 μL of the bacterial suspension was inoculated into the first tube (clear) and serially dilute to reach 1:1000 by the third tube (amber). About 1 μl of SYTO 9 (5 μM final concentration) was added to the third tube. The dye was incubated, protected from light, for at least 5 minutes (individual sample types were optionally required with longer incubations) and then the Stained Control on the Attune acoustic flow cytometer instrument was read
The event density (events/μL) from your stained control aliquots was used to calculate the inoculum volume required to produce a 5.5×10^5 bacteria mL-1 in 10 mL of MHB. For example, (400 events/A)/(10 mL×550000)=7.3 μL, rounded up to the closest 10 μL.
The required volume of bacterial suspension was added from the overnight culture into each 50 ml tube with 9 ml of preheated MHB. Optionally incubate with shaking and protected from light, at 100 RPM at 35° C. for 60 minutes.
MHB (0.1 μm filtered) was used to dilute the antibiotics in this preparation. About one aliquot of antibiotic was removed from the −20° C. freezer and equilibrated to room temperature by ambient heat exchange, and diluted to reach a range of working stock concentrations that were are ten times the desired test concentrations.
Once the 60-minute incubation of bacterial suspension was complete, about 1 mL of 10× antibiotic stocks were added to tubes containing bacterial suspensions to reach final desired test concentrations (1 ml antibiotic and total volume 10 ml). The 50 mL tubes were returned to the incubator and incubated, by shaking at 100 RPM at 35° C., for a further 3 hours.
After 3 hours, about 1 mL suspension was harvested from each tube and transferred to a 1.5 mL clear microcentrifuge tube (marked with the corresponding antibiotic concentration), then centrifuge at 7,800×g for 5 minutes. The supernatant discarded and the pellet resuspended in 1 mL of 0.1 μm filtered HBSS. This wash step was optionally repeated.
Using the computer connected to the Attune, new samples were created ready for the collection of data. That the following parameters were set: Sensitivity: High Sensitivity; Flow Rate: 25 μL/minute; Acquisition Volume: 125 μL; Events Collected: No less than 20,000 from all gates, Time: 1 minute.
About 899 μL HBSS was dispensed into one 1.5 mL amber tube per sample. About 100 μL of suspension per tube was added to achieve a 1 in 10 dilution. About 1 μl of SYTO 9 was added to each tube and the tube vortexed for no more than 2 seconds (over vortexing can lead to bacterial clustering and/or attachment to tube walls).
Samples were placed on the SIP and acquired, in technical triplicate, as per the parameters outlined above. […]

[5] = K. pneumoniae ATCC 700603 (carbapenem susceptible control)
[6] = K. pneumoniae ATCC BAA1705 (carbapenem resistant control)
[7] = S. aureus isolate ATCC 29213, MSSA
[8] = S. aureus isolate W0096111, MSSA
[9] = S. aureus isolate W0226111, MSSA
[10] = S. aureus isolate W0236111, MSSA
[11] = S. aureus isolate W0296111, MSSA
[12] = S. aureus isolate W0816111, MSSA
[13] = S. aureus isolate W0866111, MRSA
[14] = S. aureus isolate W6496111, MSSA
[15] = S. aureus isolate W9196111, MSSA
[16] = S. aureus isolate W9346111, MRSA
[17] = S. aureus isolate W . . . 6111, MRSA
[18] = S. aureus isolate WACC 98, MRSA

C[C@@H](O)[C@H]1C(=O)N2C(C(=O)O)=C(S[C@@H]3CN[C@H](C(=O)Nc4cccc(C(=O)O)c4)C3)[C@H](C)[C@H]12 [Analytical Ertapenem, ertapenem]
MICBMD (Klebsiella isolates [1]; [5]): ≤0.25 | MICBMD (Klebsiella isolates [1]; [6]): >16 | MICFAST (Klebsiella isolates [2]; [5]): ≤0.25 | MICFAST (Klebsiella isolates [2]; [6]): >16

C[C@@H](O)[C@H]1C(=O)N2C(C(=O)O)=C(SCCN=CN)C[C@H]12 [Analytical Imipenem, imipenem]
MICBMD (Klebsiella isolates [1]; [5]): 2 | MICBMD (Klebsiella isolates [1]; [6]): >16 | MICFAST (Klebsiella isolates [2]; [5]): 1 | MICFAST (Klebsiella isolates [2]; [6]): >16

CO[C@@]1(NC(=O)Cc2cccs2)C(=O)N2C(C(=O)O)=C(COC(N)=O)CS[C@@H]21 [Cefoxitin, cefoxitin]
MIC (BMD) (Staphylococcus aureus [3]; [7]): 4 µg/mL | MIC (BMD) (Staphylococcus aureus [3]; [8]): 2 µg/mL | MIC (BMD) (Staphylococcus aureus [3]; [9]): 2 µg/mL | MIC (BMD) (Staphylococcus aureus [3]; [10]): 2 µg/mL | MIC (BMD) (Staphylococcus aureus [3]; [11]): 4 µg/mL | MIC (BMD) (Staphylococcus aureus [3]; [12]): 2 µg/mL | MIC (BMD) (Staphylococcus aureus [3]; [13]): 32 µg/mL | MIC (BMD) (Staphylococcus aureus [3]; [14]): 4 µg/mL | MIC (BMD) (Staphylococcus aureus [3]; [15]): 2 µg/mL | MIC (BMD) (Staphylococcus aureus [3]; [16]): 32 µg/mL | MIC (BMD) (Staphylococcus aureus [3]; [17]): 16 µg/mL | MIC (BMD) (Staphylococcus aureus [3]; [18]): 128 µg/mL | MIC dilution at which susceptibility-associated signature is observed by AFC (Staphylococcus aureus [4]; S. aureus ATCC 29213): 4 | MIC dilution at which susceptibility-associated signature is observed by AFC (Staphylococcus aureus [4]; S. aureus WACC 98): 128 | MIC (FAST) (Staphylococcus aureus [4]; [7]): 2 µg/mL (≈ 4.68 µM) | MIC (FAST) (Staphylococcus aureus [4]; [8]): 4 µg/mL (≈ 9.36 µM) | MIC (FAST) (Staphylococcus aureus [4]; [9]): 2 µg/mL (≈ 4.68 µM) | MIC (FAST) (Staphylococcus aureus [4]; [10]): 4 µg/mL (≈ 9.36 µM) | MIC (FAST) (Staphylococcus aureus [4]; [11]): 4 µg/mL (≈ 9.36 µM) | MIC (FAST) (Staphylococcus aureus [4]; [12]): 2 µg/mL (≈ 4.68 µM) | MIC (FAST) (Staphylococcus aureus [4]; [13]): 16 µg/mL (≈ 37.4 µM) | MIC (FAST) (Staphylococcus aureus [4]; [14]): 4 µg/mL (≈ 9.36 µM) | MIC (FAST) (Staphylococcus aureus [4]; [15]): 4 µg/mL (≈ 9.36 µM) | MIC (FAST) (Staphylococcus aureus [4]; [16]): 32 µg/mL (≈ 74.9 µM) | MIC (FAST) (Staphylococcus aureus [4]; [17]): 16 µg/mL (≈ 37.4 µM) | MIC (FAST) (Staphylococcus aureus [4]; [18]): 64 µg/mL (≈ 150 µM)
